Laboratory results from patent EP4745134A1 (Jiangsu Yahong Meditech Co., Ltd., priority 2023, dated 2025).
Where two headings read alike, the source gives them in different places.

Tests used:
PRMT5-MTA = PRMT5-MTA (Homo sapiens, UniProt O14744); experiment: Enzymatic inhibitory activity against PRMT5-MTA (AlphaScreen); format: biochemical
Summary of the method: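 PRMT5/[…] (1 nM) was preincubated for 30 min at room temperature with 1 µM […] and 2.5 µM SAM, then exposed to compound (10-point, 3-fold from 1000 nM) for 15 min at 23 °C. Histone H4 substrate (5 nM) was added and reacted for 45 min at 23 °C. Symmetric dimethyl-R3 H4 was detected by AlphaScreen and IC50 calculated.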

HCT116 MTAP KO cells = experiment: Inhibitory activity against cell proliferation (CellTiter Glo, 6 days), HCT116 MTAP KO; format: cell-based; details: for IC50: Homo sapiens, HCT-116, 144 h; for Selectivity HCT 116-WT/ HCT116 MTAP KO: ratio of IC50 HCT116-WT / HCT116 MTAP KO
Summary of the method: (§1)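 Viability is measured by CellTiter Glo luminescence on day 7, following a 6-day treatment with compounds serially diluted 4-fold over 8 points from 10000 nM. Both lines are plated at 250 cells per well and cultured overnight beforehand.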

HCT116-WT cells = experiment: Inhibitory activity against cell proliferation (CellTiter Glo, 6 days), HCT116-WT; format: cell-based; details: 144 h
Summary of the method: as §1

[1] = HCT116 MTAP KO cells, 6 days, CellTiter Glo, read-out: HCT116 MTAP KO IC50
[2] = HCT116-WT cells, 6 days, CellTiter Glo, read-out: HCT116-WT IC50

PRMT5-MTA, sequence (O14744 whole entry): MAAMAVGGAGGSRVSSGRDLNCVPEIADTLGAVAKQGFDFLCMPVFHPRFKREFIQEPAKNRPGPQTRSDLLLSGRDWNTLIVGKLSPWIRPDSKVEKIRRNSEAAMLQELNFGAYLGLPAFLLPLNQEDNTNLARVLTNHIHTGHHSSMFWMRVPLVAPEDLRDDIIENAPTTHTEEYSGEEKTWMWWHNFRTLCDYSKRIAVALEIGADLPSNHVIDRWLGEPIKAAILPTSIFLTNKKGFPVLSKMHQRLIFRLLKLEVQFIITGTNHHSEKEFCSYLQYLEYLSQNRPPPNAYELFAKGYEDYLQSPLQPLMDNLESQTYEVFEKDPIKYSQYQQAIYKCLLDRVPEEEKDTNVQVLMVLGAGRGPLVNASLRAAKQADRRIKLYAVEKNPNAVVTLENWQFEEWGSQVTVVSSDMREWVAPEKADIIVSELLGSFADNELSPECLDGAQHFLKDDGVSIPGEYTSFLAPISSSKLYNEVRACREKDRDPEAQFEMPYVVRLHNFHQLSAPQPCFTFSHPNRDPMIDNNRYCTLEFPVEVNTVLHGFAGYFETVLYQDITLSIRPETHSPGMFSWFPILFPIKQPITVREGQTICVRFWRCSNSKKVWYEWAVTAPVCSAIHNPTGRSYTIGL
PRMT5-MTA, sequence (Q9BQA1 whole entry partner): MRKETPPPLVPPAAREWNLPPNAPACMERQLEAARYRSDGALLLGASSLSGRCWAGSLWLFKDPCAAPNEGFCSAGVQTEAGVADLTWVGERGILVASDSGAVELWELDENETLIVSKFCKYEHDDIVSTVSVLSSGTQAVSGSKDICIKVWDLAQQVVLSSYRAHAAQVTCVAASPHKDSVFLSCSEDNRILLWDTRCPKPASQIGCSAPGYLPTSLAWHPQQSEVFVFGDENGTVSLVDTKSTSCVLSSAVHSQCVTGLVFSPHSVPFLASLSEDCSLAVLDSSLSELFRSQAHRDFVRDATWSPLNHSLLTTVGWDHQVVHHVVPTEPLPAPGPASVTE

Cc1cc2cc(C(=O)N(Cc3ccc(C(F)(F)F)cn3)N(C)c3nccc4c3ncn4C)ccc2nc1N [Example 265, 2-amino-N',3-dimethyl-N'-(1-methyl-1H-imidazo[4,5-c]pyridin-4-yl)-N-((5-(trifluoromethyl)pyridin-2-yl)methyl)quinoline-6-carbohydrazide]
IC50 (PRMT5-MTA; read-out: IC50): 2 nM
IC50 (HCT116 MTAP KO cells; [1]): 38 nM
Selectivity HCT 116-WT/ HCT116 MTAP KO (HCT116 MTAP KO cells): 14.45
IC50 (HCT116-WT cells; [2]): 549 nM

Cc1cc2cc(C(=O)N(Cc3ccc(C(F)(F)F)cn3)N(C)c3nccc4ccncc34)ccc2nc1N [Example 266, 2-amino-N',3-dimethyl-N'-(2,7-naphthyridin-1-yl)-N-((5-(trifluoromethyl)pyridin-2-yl)methyl)quinoline-6-carbohydrazide]
IC50 (PRMT5-MTA; read-out: IC50): 2.6 nM
IC50 (HCT116 MTAP KO cells; [1]): 231 nM
Selectivity HCT 116-WT/ HCT116 MTAP KO (HCT116 MTAP KO cells): 13.60
IC50 (HCT116-WT cells; [2]): 3140 nM

Nc1nc2ccc(C(=O)N(Cc3ccc(C(F)(F)F)cn3)N(c3ncccn3)C3CC3)cc2cc1Br [Example 270, 2-amino-3-bromo-N'-cyclopropyl-N'-(pyrimidin-2-yl)-N-((5-(trifluoromethyl)pyridin-2-yl)methyl)quinoline-6-carbohydrazide]
IC50 (PRMT5-MTA; read-out: IC50): 4.9 nM
IC50 (HCT116 MTAP KO cells; [1]): 110 nM
Selectivity HCT 116-WT/ HCT116 MTAP KO (HCT116 MTAP KO cells): 13.74
IC50 (HCT116-WT cells; [2]): 1510 nM

Cc1cc2cc(C(=O)N(Cc3ccc(C(F)(F)F)cn3)N(C)c3nccc4sccc34)ccc2nc1N [Example 271, 2-amino-N',3-dimethyl-N'-(thieno[3,2-c]pyridin-4-yl)-N-((5-(trifluoromethyl)pyridin-2-yl)methyl)quinoline-6-carbohydrazide]
IC50 (PRMT5-MTA; read-out: IC50): 2.7 nM
IC50 (HCT116 MTAP KO cells; [1]): 89 nM
Selectivity HCT 116-WT/ HCT116 MTAP KO (HCT116 MTAP KO cells): 13.42
IC50 (HCT116-WT cells; [2]): 1190 nM

Cc1cc2cc(C(=O)N(Cc3ccc(C(F)(F)F)cn3)N(C)c3nccc4nc(C)c(C)nc34)ccc2nc1N [Example 272, 2-amino-N'-(2,3-dimethylpyrido[3,4-b]pyrazin-5-yl)-N',3-dimethyl-N-((5-(trifluoromethyl)pyridin-2-yl)methyl)quinoline-6-carbohydrazide]
IC50 (PRMT5-MTA; read-out: IC50): 2.6 nM
IC50 (HCT116 MTAP KO cells; [1]): 242 nM
Selectivity HCT 116-WT/ HCT116 MTAP KO (HCT116 MTAP KO cells): 13.13
IC50 (HCT116-WT cells; [2]): 3180 nM

Cc1cc2cc(C(=O)N(Cc3ccc(C(F)F)cn3)N(C)c3ncccn3)ccc2nc1N [Example 273, 2-amino-N-((5-(difluoromethyl)pyridin-2-yl)methyl)-N',3-dimethyl-N'-(pyrimidin-2-yl)quinoline-6-carbohydrazide]
IC50 (PRMT5-MTA; read-out: IC50): 2.8 nM
IC50 (HCT116 MTAP KO cells; [1]): 78 nM
Selectivity HCT 116-WT/ HCT116 MTAP KO (HCT116 MTAP KO cells): 29.27
IC50 (HCT116-WT cells; [2]): 2280 nM

Cc1cc2cc(C(=O)N(Cc3ccc(C(F)(F)F)cn3)N(C)c3nccc4ccsc34)ccc2nc1N [Example 274, 2-amino-N',3-dimethyl-N'-(thieno[2,3-c]pyridin-7-yl)-N-((5-(trifluoromethyl)pyridin-2-yl)methyl)quinoline-6-carbohydrazide]
IC50 (PRMT5-MTA; read-out: IC50): 3.7 nM
IC50 (HCT116 MTAP KO cells; [1]): 167 nM
Selectivity HCT 116-WT/ HCT116 MTAP KO (HCT116 MTAP KO cells): 15.10
IC50 (HCT116-WT cells; [2]): 2520 nM

Cc1cnc(N(C)N(Cc2ccc(C(F)(F)F)cn2)C(=O)c2ccc3nc(N)c(C)cc3c2)nc1 [Example 276, 2-amino-N',3-dimethyl-N'-(5-methylpyrimidin-2-yl)-N-((5-(trifluoromethyl)pyridin-2-yl)methyl)quinoline-6-carbohydrazide]
IC50 (PRMT5-MTA; read-out: IC50): 1.6 nM
IC50 (HCT116 MTAP KO cells; [1]): 80 nM
Selectivity HCT 116-WT/ HCT116 MTAP KO (HCT116 MTAP KO cells): 24.70
IC50 (HCT116-WT cells; [2]): 1980 nM

Cc1cc2cc(C(=O)N(Cc3ncc(Br)cc3F)N(C)c3ncccn3)ccc2nc1N [Example 277, 2-amino-N-((5-bromo-3-fluoropyridin-2-yl)methyl)-N',3-dimethyl-N'-(pyrimidin-2-yl)quinoline-6-carbohydrazide]
IC50 (PRMT5-MTA; read-out: IC50): 2.2 nM
IC50 (HCT116 MTAP KO cells; [1]): 79 nM
Selectivity HCT 116-WT/ HCT116 MTAP KO (HCT116 MTAP KO cells): 24.23
IC50 (HCT116-WT cells; [2]): 1910 nM

Cc1cc2cc(C(=O)N(Cc3c(F)cc(Br)cc3F)N(C)c3ncccn3)ccc2nc1N [Example 278, 2-amino-N-(4-bromo-2,6-difluorobenzyl) -N',3-dimethyl-N'-(pyrimidin-2-yl)quinoline-6-carbohydrazide]
IC50 (PRMT5-MTA; read-out: IC50): 1.5 nM
IC50 (HCT116 MTAP KO cells; [1]): 28 nM
Selectivity HCT 116-WT/ HCT116 MTAP KO (HCT116 MTAP KO cells): 14.11
IC50 (HCT116-WT cells; [2]): 395 nM

Cc1cc2nc(N)c3cnn(C)c3c2cc1C(=O)N(C)N1CCc2ccccc21 [Example 279]
IC50 (PRMT5-MTA): 4.3 nM
IC50 (HCT116 MTAP KO cells; read-out: HCT116 MTAP KO IC50 (nM)): 284 nM
IC50 (HCT116-WT cells; read-out: HCT116-WT IC50 (nM)): > 10000 nM

COC1(c2ccc(CN(C(=O)c3ccc4nc(N)c(C)cc4c3)N(C)c3ncccn3)nc2)COC1 [Example 284, 2-amino-N-((5-(3-methoxyoxetan-3-yl)pyridin-2-yl)methyl)-N',3-dimethyl-N'-(pyrimidin-2-yl)quinoline-6-carbohydrazide]
IC50 (PRMT5-MTA; read-out: IC50): 2.3 nM
IC50 (HCT116 MTAP KO cells; [1]): 194 nM
Selectivity HCT 116-WT/ HCT116 MTAP KO (HCT116 MTAP KO cells): 17.71
IC50 (HCT116-WT cells; [2]): 3440 nM

Cc1cc2cc(C(=O)N(Cc3ccc(C4(F)COC4)cn3)N(C)c3ncccn3)ccc2nc1N [Example 286, 2-amino-N-((5-(3-fluorooxetan-3-yl)pyridin-2-yl)methyl)-N',3-dimethyl-N'-(pyrimidin-2-yl)quinoline-6-carbohydrazide]
IC50 (PRMT5-MTA; read-out: IC50): 2.7 nM
IC50 (HCT116 MTAP KO cells; [1]): 91 nM
Selectivity HCT 116-WT/ HCT116 MTAP KO (HCT116 MTAP KO cells): 26.60
IC50 (HCT116-WT cells; [2]): 2420 nM

Cc1cc2cc(C(=O)N(Cc3ccc(C4(F)CCC4)cn3)N(C)c3ncccn3)ccc2nc1N [Example 287, 2-amino-N-((5-(1-fluorocyclobutyl)pyridin-2-yl)methyl)-N',3-dimethyl-N'-(pyrimidin-2-yl)quinoline-6-carbohydrazide]
IC50 (PRMT5-MTA; read-out: IC50): 2.2 nM
IC50 (HCT116 MTAP KO cells; [1]): 113 nM
Selectivity HCT 116-WT/ HCT116 MTAP KO (HCT116 MTAP KO cells): 22.69
IC50 (HCT116-WT cells; [2]): 2560 nM

Cc1cc2cc(C(=O)N(Cc3ccc(C4CCC4)cn3)N(C)c3ncccn3)ccc2nc1N [Example 289, 2-amino-N-((5-cyclobutylpyridin-2-yl)methyl)-N',3-dimethyl-N'-(pyrimidin-2-yl)quinoline-6-carbohydrazide]
IC50 (PRMT5-MTA; read-out: IC50): 0.9 nM
IC50 (HCT116 MTAP KO cells; [1]): 53 nM
Selectivity HCT 116-WT/ HCT116 MTAP KO (HCT116 MTAP KO cells): 13.04
IC50 (HCT116-WT cells; [2]): 691 nM

Cc1cc2cc(C(=O)N(Cc3ccc(C(C)(F)F)cn3)N(C)c3ncccn3)ccc2nc1N [Example 291, 2-amino-N-((5-(1,1-difluoroethyl)pyridin-2-yl)methyl)-N',3-dimethyl-N'-(pyrimidin-2-yl)quinoline-6-carbohydrazide]
IC50 (PRMT5-MTA; read-out: IC50): 3.9 nM
IC50 (HCT116 MTAP KO cells; [1]): 39 nM
Selectivity HCT 116-WT/ HCT116 MTAP KO (HCT116 MTAP KO cells): 26.90
IC50 (HCT116-WT cells; [2]): 1050 nM

Cc1cc2cc(C(=O)N(Cc3ccc(C(C)F)cn3)N(C)c3ncccn3)ccc2nc1N (stereo not shown) [Example 292, 2-amino-N-((5-(1-fluoroethyl)pyridin-2-yl)methyl)-N',3-dimethyl-N'-(pyrimidin-2-yl)q uinoline-6-carbohydrazide]
IC50 (PRMT5-MTA; read-out: IC50): 1.4 nM
IC50 (HCT116 MTAP KO cells; [1]): 50 nM
Selectivity HCT 116-WT/ HCT116 MTAP KO (HCT116 MTAP KO cells): 30.30
IC50 (HCT116-WT cells; [2]): 1520 nM

CC(=O)c1ccc(CN(C(=O)c2ccc3nc(N)c(C)cc3c2)N(C)c2ncccn2)nc1 [Example 294, N-((5-acetylpyridin-2-yl)methyl)-2-amino-N',3-dimethyl-N'-(pyrimidin-2-yl)quinoline-6-carbohydrazide]
IC50 (PRMT5-MTA; read-out: IC50): 1.9 nM
IC50 (HCT116 MTAP KO cells; [1]): 113 nM
Selectivity HCT 116-WT/ HCT116 MTAP KO (HCT116 MTAP KO cells): 25.71
IC50 (HCT116-WT cells; [2]): 2900 nM

Cc1cc2cc(C(=O)N(Cc3ccc(C(C)O)cn3)N(C)c3ncccn3)ccc2nc1N (stereo not shown) [Example 295, 2-amino-N-((5-(1-hydroxyethyl)pyridin-2-yl)methyl)-N',3-dimethyl-N-(pyrimidin-2-yl) quinoline-6-carbohydrazide]
IC50 (PRMT5-MTA; read-out: IC50): 2 nM
IC50 (HCT116 MTAP KO cells; [1]): 399 nM
Selectivity HCT 116-WT/ HCT116 MTAP KO (HCT116 MTAP KO cells): 12.38
IC50 (HCT116-WT cells; [2]): 4940 nM

CN(c1ncccn1)N(Cc1ccc(C(F)(F)F)cn1)C(=O)c1ccc2nc(N)c(Br)cc2c1 [Example 303, 2-amino-3-bromo-N'-methyl-N'-(pyrimidin-2-yl)-N-((5-(trifluoromethyl)pyridin-2-yl)methyl)quinoline-6-carbohydrazide]
IC50 (PRMT5-MTA; read-out: IC50): 3 nM
IC50 (HCT116 MTAP KO cells; [1]): 110 nM
Selectivity HCT 116-WT/ HCT116 MTAP KO (HCT116 MTAP KO cells): 27.20
IC50 (HCT116-WT cells; [2]): 2990 nM

C=Cc1cc2cc(C(=O)N(Cc3ccc(C(F)(F)F)cn3)N(C)c3ncccn3)ccc2nc1N [Example 304, 2-amino-N'-methyl-N'-(pyrimidin-2-yl)-N-((5-(trifluoromethyl)pyridin-2-yl)methyl)-3-v inylquinoline-6-carbohydrazide]
IC50 (PRMT5-MTA; read-out: IC50): 3.9 nM
IC50 (HCT116 MTAP KO cells; [1]): 204 nM
Selectivity HCT 116-WT/ HCT116 MTAP KO (HCT116 MTAP KO cells): 17.81
IC50 (HCT116-WT cells; [2]): 3630 nM

CCc1cc2cc(C(=O)N(Cc3ccc(C(F)(F)F)cn3)N(C)c3ncccn3)ccc2nc1N [Example 305, 2-amino-3-ethyl-N'-methyl-N'-(pyrimidin-2-yl)-iN-((5-(trifluoromethyl)pyridin-2-yl)methyl)quinoline-6-carbohydrazide]
IC50 (PRMT5-MTA; read-out: IC50): 2.3 nM
IC50 (HCT116 MTAP KO cells; [1]): 85 nM
Selectivity HCT 116-WT/ HCT116 MTAP KO (HCT116 MTAP KO cells): 19.60
IC50 (HCT116-WT cells; [2]): 1670 nM

Cc1cc2cc(C(=O)N(Cc3ccc(C(F)(F)F)cn3)N(C)c3ncccn3)ncc2nc1N [Example 306, 2-amino-N',3-dimethyl-N'-(pyrimidin-2-yl)-N-((5-(trifluoromethyl)pyridin-2-yl)methyl) -1,7-naphthyridine-6-carbohydrazide]
IC50 (PRMT5-MTA; read-out: IC50): 4.9 nM
IC50 (HCT116 MTAP KO cells; [1]): 319 nM
Selectivity HCT 116-WT/ HCT116 MTAP KO (HCT116 MTAP KO cells): 12.15
IC50 (HCT116-WT cells; [2]): 3880 nM
